Activity calls are given as the source filed them. The calls are words filed in the database; no cut-off is given here.
Legend:
Format in all cases: cell-based
Toll-like receptor 2 [1] = biological target: T1, Toll-like receptor 2 (Homo sapiens, UniProt O60603); test: Agonist activity at human TLR2 expressed in HEK-Blue cells harboring NFkB promoter-driven secreted alkaline phosphatase assessed as induction of NFkB after 12 hrs by spectrophotometric assay
Toll-like receptor 2 [2] = biological target: T1, Toll-like receptor 2; test: Agonist activity at human TLR2 expressed in HEK cells assessed as induction of MCP1 by ELISA
Toll-like receptor 2 [3] = biological target: T1, Toll-like receptor 2; test: Agonist activity at human TLR2 expressed in HEK cells assessed as induction of MIP1beta level
Toll-like receptor 2 [4] = biological target: T1, Toll-like receptor 2; test: Agonist activity at human TLR2 expressed in HEK cells assessed as induction of MIP1alpha level
Toll-like receptor 2 [5] = biological target: T1, Toll-like receptor 2; test: Agonist activity at human TLR2 expressed in human THP1-Blue cells harboring NFkB promoter-driven secreted alkaline phosphatase assessed as induction of NFkB after 12 hrs co-treated with PAM2CSK4 by spectrophotometric assay

T1 sequence (O60603 whole entry): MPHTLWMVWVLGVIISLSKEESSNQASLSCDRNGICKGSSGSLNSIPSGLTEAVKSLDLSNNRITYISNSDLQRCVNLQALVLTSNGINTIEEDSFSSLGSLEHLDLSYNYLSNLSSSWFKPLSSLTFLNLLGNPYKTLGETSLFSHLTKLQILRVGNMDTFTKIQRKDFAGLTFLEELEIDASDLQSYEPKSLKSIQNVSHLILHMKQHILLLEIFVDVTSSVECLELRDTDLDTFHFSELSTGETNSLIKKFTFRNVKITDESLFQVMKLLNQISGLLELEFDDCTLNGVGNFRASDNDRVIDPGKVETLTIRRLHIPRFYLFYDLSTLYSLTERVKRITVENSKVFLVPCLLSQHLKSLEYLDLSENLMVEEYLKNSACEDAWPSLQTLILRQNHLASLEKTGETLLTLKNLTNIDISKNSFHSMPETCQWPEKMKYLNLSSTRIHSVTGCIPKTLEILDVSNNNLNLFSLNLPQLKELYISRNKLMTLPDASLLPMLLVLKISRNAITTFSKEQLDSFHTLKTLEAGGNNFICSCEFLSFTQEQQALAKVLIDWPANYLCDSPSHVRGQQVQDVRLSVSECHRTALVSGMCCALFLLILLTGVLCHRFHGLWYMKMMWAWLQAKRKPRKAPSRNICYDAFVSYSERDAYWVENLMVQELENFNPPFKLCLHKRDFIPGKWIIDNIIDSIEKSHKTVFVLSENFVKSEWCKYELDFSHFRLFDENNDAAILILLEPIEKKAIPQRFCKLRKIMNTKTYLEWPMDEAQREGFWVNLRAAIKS

Cc1ccc(S(=O)(=O)N2CCC[C@H]2C(=O)N2c3ccc(F)cc3CC[C@@H]2C)cc1
Activity (Toll-like receptor 2 [1]): Active

CC1CCc2cc(F)cc3c(O)c(C(=O)NCc4cccc5[nH]ccc45)c(=O)n1c23 (configuration not stated)
Activity (Toll-like receptor 2 [1]): inactive

CC1CCc2cc(F)cc3c(O)c(C(=O)NCc4cnc5ccccc5c4)c(=O)n1c23 (configuration not stated)
Activity (Toll-like receptor 2 [1]): inactive

CC1CCc2cc(F)cc3c(O)c(C(=O)NCc4ccc(N)nc4)c(=O)n1c23 (configuration not stated)
EC50 (Toll-like receptor 2 [2]): 7.56 µM
EC50 (Toll-like receptor 2 [1]): 0.32 µM

C[C@H]1CCc2cc(F)cc3c(O)c(C(=O)NCc4cncc(F)c4)c(=O)n1c23
Activity (Toll-like receptor 2 [2]): Active
Activity (Toll-like receptor 2 [3]): Active
Activity (Toll-like receptor 2 [4]): Active
Activity (Toll-like receptor 2 [5]): Active
Activity (Toll-like receptor 2 [1]): Active

CC1CCc2cc(F)cc3c(O)c(C(=O)NCc4ccc5c(c4)OCCO5)c(=O)n1c23 (configuration not stated)
Activity (Toll-like receptor 2 [1]): inactive

CC1CCc2cc(F)cc3c(O)c(C(=O)NCc4cccc(C(N)=O)c4)c(=O)n1c23 (configuration not stated)
Activity (Toll-like receptor 2 [1]): inactive

Cc1ccc(S(=O)(=O)N2CCC[C@H]2C(=O)N2c3ccc(F)cc3CC[C@H]2C)cc1
Activity (Toll-like receptor 2 [1]): Active

CC1CCc2cc(F)cc3c(O)c(C(=O)NCc4n[nH]c5ccccc45)c(=O)n1c23 (configuration not stated)
Activity (Toll-like receptor 2 [1]): inactive

CC1CCc2cc(F)cc3c(O)c(C(=O)NCc4cncc(F)c4)c(=O)n1c23 (configuration not stated)
EC50 (Toll-like receptor 2 [2]): 4.52 µM
EC50 (Toll-like receptor 2 [1]): 1 µM

CC1CCc2cc(F)cc3c(O)c(C(=O)NCc4ccnn4C)c(=O)n1c23 (configuration not stated)
Activity (Toll-like receptor 2 [1]): inactive

CC1CCc2cc(F)cc3c(O)c(C(=O)NCc4ccccn4)c(=O)n1c23 (configuration not stated)
Activity (Toll-like receptor 2 [1]): inactive

CC1CCc2cc(F)cc3c(O)c(C(=O)NCC4CCOC4)c(=O)n1c23 (configuration not stated)
Activity (Toll-like receptor 2 [1]): inactive

CC1CCc2cc(F)cc3c(O)c(C(=O)NCc4cccnc4N(C)C)c(=O)n1c23 (configuration not stated)
EC50 (Toll-like receptor 2 [2]): 3.09 µM
EC50 (Toll-like receptor 2 [1]): 3.2 µM

CC1CCc2cc(F)cc3c(O)c(C(=O)NCc4ccnc5[nH]ccc45)c(=O)n1c23 (configuration not stated)
Activity (Toll-like receptor 2 [1]): inactive

Cc1ccncc1CNC(=O)c1c(O)c2cc(F)cc3c2n(c1=O)C(C)CC3 (configuration not stated)
EC50 (Toll-like receptor 2 [1]): 1.45 µM

C[C@H]1CCc2cc(F)ccc2N1
Activity (Toll-like receptor 2 [1]): Active

CC1CCc2cc(F)cc3c(O)c(C(=O)NCc4ccc(Cl)nc4)c(=O)n1c23 (configuration not stated)
EC50 (Toll-like receptor 2 [1]): 5 µM

CC1CCc2cc(F)cc3c(O)c(C(=O)NCCc4cccnc4)c(=O)n1c23 (configuration not stated)
EC50 (Toll-like receptor 2 [2]): 1.86 µM
EC50 (Toll-like receptor 2 [1]): 1.35 µM

CC1CCc2cc(F)cc3c(O)c(C(=O)NCc4ccc5c(c4)OCO5)c(=O)n1c23 (configuration not stated)
Activity (Toll-like receptor 2 [1]): inactive

C[C@H]1CCc2cc(F)cc3c(O)c(C(=O)NCc4ccc(N)nc4)c(=O)n1c23
Activity (Toll-like receptor 2 [2]): Active
Activity (Toll-like receptor 2 [3]): Active
Activity (Toll-like receptor 2 [4]): Active
Activity (Toll-like receptor 2 [5]): Active
Activity (Toll-like receptor 2 [1]): Active

CC1CCc2cc(F)cc3c(O)c(C(=O)NCc4ccno4)c(=O)n1c23 (configuration not stated)
Activity (Toll-like receptor 2 [1]): inactive

C[C@@H]1CCc2cc(F)cc3c(O)c(C(=O)NCc4cccnc4)c(=O)n1c23
Activity (Toll-like receptor 2 [1]): Active

COc1cc(CNC(=O)c2c(O)c3cc(F)cc4c3n(c2=O)C(C)CC4)ccn1 (configuration not stated)
Activity (Toll-like receptor 2 [1]): inactive

CC1CCc2cc(F)cc3c(O)c(C(=O)NCc4ccc5[nH]ccc5c4)c(=O)n1c23 (configuration not stated)
Activity (Toll-like receptor 2 [1]): inactive

CC1CCc2cc(F)cc3c(O)c(C(=O)NCc4cccc5ncccc45)c(=O)n1c23 (configuration not stated)
Activity (Toll-like receptor 2 [1]): inactive

CC1CCc2cc(F)cc3c(O)c(C(=O)NCc4cccs4)c(=O)n1c23 (configuration not stated)
Activity (Toll-like receptor 2 [1]): inactive

CC1CCc2cc(F)cc3c(O)c(C(=O)NCc4ccsc4)c(=O)n1c23 (configuration not stated)
Activity (Toll-like receptor 2 [1]): inactive

CC1CCc2cc(F)cc3c(O)c(C(=O)NCc4ccncc4)c(=O)n1c23 (configuration not stated)
Activity (Toll-like receptor 2 [1]): inactive

CC1CCc2cc(F)cc3c(O)c(C(=O)NCC4CCN(C)C4)c(=O)n1c23 (configuration not stated)
Activity (Toll-like receptor 2 [1]): inactive

CC1CCc2cc(F)cc3c(O)c(C(=O)NCC4CCCN(C)C4)c(=O)n1c23 (configuration not stated)
Activity (Toll-like receptor 2 [1]): inactive

CC1CCc2cc(F)cc3c(O)c(C(=O)NCC4CCNCC4)c(=O)n1c23 (configuration not stated)
Activity (Toll-like receptor 2 [1]): inactive

CC1CCc2cc(F)cc3c(O)c(C(=O)Nc4cccnc4)c(=O)n1c23 (configuration not stated)
Activity (Toll-like receptor 2 [1]): inactive

C[C@@H]1CCc2cc(F)ccc2N1
Activity (Toll-like receptor 2 [1]): Active

CC1CCc2cc(F)cc3c(O)c(C(=O)NCc4nc5ccccc5[nH]4)c(=O)n1c23 (configuration not stated)
Activity (Toll-like receptor 2 [1]): inactive

C[C@H]1CCc2cc(F)cc3c(O)c(C(=O)NCc4cccnc4)c(=O)n1c23
Activity (Toll-like receptor 2 [2]): Active
Activity (Toll-like receptor 2 [3]): Active
Activity (Toll-like receptor 2 [4]): Active
Activity (Toll-like receptor 2 [5]): Active
Activity (Toll-like receptor 2 [1]): Active

CC1CCc2cc(F)cc3c(O)c(C(=O)NCc4cccc5cc[nH]c45)c(=O)n1c23 (configuration not stated)
Activity (Toll-like receptor 2 [1]): inactive

CC1CCc2cc(F)cc3c(O)c(C(=O)NCc4cnn(C)c4)c(=O)n1c23 (configuration not stated)
Activity (Toll-like receptor 2 [1]): inactive

CC1CCc2cc(F)cc3c(O)c(C(=O)NCC4CCCCN4)c(=O)n1c23 (configuration not stated)
Activity (Toll-like receptor 2 [1]): inactive

CC1CCc2cc(F)cc3c(O)c(C(=O)NCC4CCCNC4)c(=O)n1c23 (configuration not stated)
Activity (Toll-like receptor 2 [1]): inactive

Cc1cc(CNC(=O)c2c(O)c3cc(F)cc4c3n(c2=O)C(C)CC4)no1 (configuration not stated)
Activity (Toll-like receptor 2 [1]): inactive

CC1CCc2cc(F)cc3c(O)c(C(=O)NCc4cccnc4)c(=O)n1c23 (configuration not stated)
EC50 (Toll-like receptor 2 [2]): 1.35 µM
EC50 (Toll-like receptor 2 [1]): 0.3 µM

CC1CCc2cc(F)cc3c(O)c(C(=O)NCCn4ccnc4)c(=O)n1c23 (configuration not stated)
Activity (Toll-like receptor 2 [1]): inactive

CC1CCc2cc(F)cc3c(O)c(C(=O)NC4CCc5ncccc54)c(=O)n1c23 (configuration not stated)
EC50 (Toll-like receptor 2 [1]): 3 µM

CC1CCc2cc(F)cc3c(O)c(C(=O)NCc4cncnc4)c(=O)n1c23 (configuration not stated)
Activity (Toll-like receptor 2 [1]): inactive

C[C@@H]1CCc2cc(F)cc3c(O)c(C(=O)NCc4ccc(N)nc4)c(=O)n1c23
Activity (Toll-like receptor 2 [1]): Active

CC1CCc2cc(F)cc3c(O)c(C(=O)NCc4ccnnc4)c(=O)n1c23 (configuration not stated)
Activity (Toll-like receptor 2 [1]): inactive

Cc1nn(C)cc1CNC(=O)c1c(O)c2cc(F)cc3c2n(c1=O)C(C)CC3 (configuration not stated)
Activity (Toll-like receptor 2 [1]): inactive

CC1CCc2cc(F)cc3c(O)c(C(=O)NCc4cc5ccccc5[nH]4)c(=O)n1c23 (configuration not stated)
Activity (Toll-like receptor 2 [1]): inactive

CC1CCc2cc(F)cc3c(O)c(C(=O)NCC4CNCCO4)c(=O)n1c23 (configuration not stated)
Activity (Toll-like receptor 2 [1]): inactive

CC1CCc2cc(F)cc3c(O)c(C(=O)NCc4ccc(N(C)C)nc4)c(=O)n1c23 (configuration not stated)
Activity (Toll-like receptor 2 [1]): inactive

CC1CCc2cc(F)cc3c(O)c(C(=O)NCc4nccn4C)c(=O)n1c23 (configuration not stated)
Activity (Toll-like receptor 2 [1]): inactive

Cc1nnc(CNC(=O)c2c(O)c3cc(F)cc4c3n(c2=O)C(C)CC4)o1 (configuration not stated)
Activity (Toll-like receptor 2 [1]): inactive

CC1CCc2cc(F)cc3c(O)c(C(=O)NCc4cccnn4)c(=O)n1c23 (configuration not stated)
Activity (Toll-like receptor 2 [1]): inactive

CC1CCc2cc(F)cc3c(O)c(C(=O)NCc4nc5ccccc5n4C)c(=O)n1c23 (configuration not stated)
Activity (Toll-like receptor 2 [1]): inactive

Source: ChEMBL document CHEMBL4308923, “Identification of Human Toll-like Receptor 2-Agonistic Activity in Dihydropyridine-Quinolone Carboxamides” (ACS Med Chem Lett, 2019)
